Results as given in patent publication US10597364B2, “Anthelmintic compounds, compositions and method of using thereof” (priority 2015, dated 2020).

Tested on: Haemonchus contortus
Assay: Method A: Haemonchus contortus L1 larval development/motility screen in microtitre plate
Type: cell-based
Details: 96 h, read-out: motility inhibition

| Structure (SMILES) | inhibition at 5 µM [%] |
| --- | --- |
| COC(=O)N1CCN(c2cc(O[C@H]3CC[C@H](Nc4ccc([N+](=O)[O-])c(C(F)(F)F)c4)CC3)ccn2)CC1 [Compound 75] | ≥ 90 |
| O=[N+]([O-])c1ccc(N[C@H]2CC[C@H](Oc3cc(N4CCN(C(=S)NC5CCCC5)CC4)ccn3)CC2)cc1C(F)(F)F [Compound 81] | ≥ 90 |
| O=[N+]([O-])c1ccc(N[C@H]2CC[C@H](Oc3cncc(N4CCN(Cc5nc6cc(C(F)(F)F)ccc6s5)CC4)c3)CC2)cc1C(F)(F)F [Compound 62] | ≥ 90 |
| CC(C)(C)OC(=O)N1CCN(c2cncc(O[C@H]3CC[C@H](Nc4ccc(C#N)c(C(F)(F)F)c4)CC3)c2)CC1 [Compound 50] | ≥ 90 |
| O=[N+]([O-])c1ccc(N[C@H]2CC[C@H](Oc3cncc(N4CCN(S(=O)(=O)C(F)(F)F)CC4)c3)CC2)cc1C(F)(F)F [Compound 63] | ≥ 90 |
| N#Cc1ccc(N[C@H]2CC[C@H](Oc3cncc(N4CCN(C(=O)CC5CCCC5)CC4)c3)CC2)cc1C(F)(F)F [Compound 180] | ≥ 90 |
| CCCOC(=O)N1CCN(c2cc(O[C@H]3CC[C@H](Nc4ccc(C#N)c(C(F)(F)F)c4)CC3)ccn2)CC1 [Compound 176] | ≥ 90 |
| O=C(Nc1ccc(C(F)(F)F)cc1)N1CCN(c2cncc(O[C@H]3CC[C@H](Nc4ccc([N+](=O)[O-])c(C(F)(F)F)c4)CC3)c2)CC1 [Compound 94] | ≥ 90 |
| O=[N+]([O-])c1ccc(N[C@H]2CC[C@H](Oc3cncc(N4CCN(C(=S)Nc5ccc(C(F)(F)F)cc5)CC4)c3)CC2)cc1C(F)(F)F [Compound 88] | ≥ 90 |
| O=C(CC1CCCC1)N1CCN(c2cncc(O[C@H]3CC[C@H](Nc4ccc([N+](=O)[O-])c(C(F)(F)F)c4)CC3)c2)CC1 [Compound 20] | ≥ 90 |
| O=C(CC1CCCC1)N1CCN(c2ccnc(O[C@H]3CC[C@H](Nc4ccc(S(=O)(=O)C(F)(F)F)cc4)CC3)c2)CC1 [Compound 163] | ≥ 90 |
| CC(C)(C)CN1CCN(c2ccnc(O[C@H]3CC[C@H](Nc4ccc([N+](=O)[O-])c(C(F)(F)F)c4)CC3)c2)CC1 [Compound 84] | ≥ 90 |
| O=[N+]([O-])c1ccc(N[C@H]2CC[C@H](Oc3cncc(N4CCN(c5ccc6cc(C(F)(F)F)ccc6n5)CC4)c3)CC2)cc1C(F)(F)F [Compound 90] | ≥ 90 |
| CCCCC(=O)N1CCN(c2cncc(O[C@H]3CC[C@H](Nc4ccc([N+](=O)[O-])c(C(F)(F)F)c4)CC3)c2)CC1 [Compound 19, 1-[4-(5-[[4-[[4-nitro-3-(trifluoromethyl)phenyl]amino]cyclohexyl]oxy]pyridin-3-yl)piperazin-1-yl]pentan-1-one] | ≥ 90 |
| CCCOC(=O)N1CCN(c2ccnc(O[C@H]3CC[C@H](Nc4ccc(C#N)c(C(F)(F)F)c4)CC3)c2)CC1 [Compound 74] | ≥ 90 |
| O=C(CC1CCCC1)N1CCN(c2cncc(O[C@H]3CC[C@H](Nc4ccc(S(=O)(=O)C(F)(F)F)cc4)CC3)c2)CC1 [Compound 193] | ≥ 90 |

Tested on: microfilaria of Dirofilaria immitis
Assay: Method C: microfilaria of Dirofilaria immitis motility screen
Type: cell-based
Details: 10 μM, 24 hours, read-out: inhibition of the microfilaria's motility

| Structure (SMILES) | inhibition at 10 µM [%] |
| --- | --- |
| COC(=O)N1CCN(c2cc(O[C@H]3CC[C@H](Nc4ccc([N+](=O)[O-])c(C(F)(F)F)c4)CC3)ccn2)CC1 [Compound 75] | ≥ 90 |
| CN(c1ccc([N+](=O)[O-])c(C(F)(F)F)c1)[C@H]1CC[C@H](Oc2ccnc(N3CCN(C(=O)NC(C)(C)C)CC3)c2)CC1 [Compound 132] | ≥ 90 |

Same assay, conditions: 5 ppm, 24 hours, read-out: inhibition of the microfilaria's motility

| Structure (SMILES) | inhibition at 5 ppm [%] |
| --- | --- |
| CCCNC(=O)N1CCN(c2cccc(O[C@H]3CC[C@H](Nc4ccc([N+](=O)[O-])c(C(F)(F)F)c4)CC3)n2)CC1 [Compound 127, N-propyl-4-(6-[[4-[[4-nitro-3-(trifluoromethyl)phenyl]amino]cyclohexyl]oxy]pyridin-2-yl)piperazine-1-carboxamide] | ≥ 90 |

Same assay, conditions: 24 h, read-out: inhibition of the microfilaria's motility

| Structure (SMILES) | inhibition at 5 ppm [%] | inhibition at 1 ppm [%] | inhibition at 10 µM [%] |
| --- | --- | --- | --- |
| CC(C)(C)NC(=S)N1CCN(c2ccnc(O[C@H]3CC[C@H](Nc4ccc([N+](=O)[O-])c(C(F)(F)F)c4)CC3)c2)CC1 [Compound 93] | ≥ 90 |  |  |
| O=[N+]([O-])c1ccc(N[C@H]2CC[C@H](Oc3cc(N4CCN(C(=S)NC5CCCC5)CC4)ccn3)CC2)cc1C(F)(F)F [Compound 81] | ≥ 90 | ≥ 90 |  |
| O=[N+]([O-])c1ccc(N[C@H]2CC[C@H](Oc3ccnc(N4CC5CN(c6ccc(C(F)(F)F)cn6)CC5C4)c3)CC2)cc1C(F)(F)F (some centres unmarked) [Compound 140] |  |  | ≥ 90 |
| CCCCC(=O)N1CCN(c2cccc(O[C@H]3CC[C@H](Nc4ccc([N+](=O)[O-])c(C(F)(F)F)c4)CC3)n2)CC1 [Compound 136] |  |  | ≥ 90 |
| CNC(=S)N1CCN(c2cccc(O[C@H]3CC[C@H](Nc4ccc([N+](=O)[O-])c(C(F)(F)F)c4)CC3)n2)CC1 [Compound 130] | ≥ 90 |  |  |
| CCC(=O)N1CCN(c2cccc(O[C@H]3CC[C@H](Nc4ccc([N+](=O)[O-])c(C(F)(F)F)c4)CC3)n2)CC1 [Compound 115] | ≥ 90 |  |  |
| O=[N+]([O-])c1ccc(N[C@H]2CC[C@H](Oc3ccnc(N4CCN(CC(F)(F)F)CC4)c3)CC2)cc1C(F)(F)F [Compound 108] | ≥ 90 |  |  |
| O=C(Nc1ccc(F)cc1)N1CCN(c2ccnc(O[C@H]3CC[C@H](Nc4ccc([N+](=O)[O-])c(C(F)(F)F)c4)CC3)c2)CC1 [Compound 112] |  |  | ≥ 90 |
| CNC(=S)N1CCN(c2cncc(O[C@H]3CC[C@H](Nc4ccc([N+](=O)[O-])c(C(F)(F)F)c4)CC3)c2)CC1 [Compound 128] | ≥ 90 |  |  |
| O=[N+]([O-])c1ccc(N[C@H]2CC[C@H](Oc3cncc(N4CCN(C(=S)Nc5ccc(F)cc5)CC4)c3)CC2)cc1C(F)(F)F [Compound 92] | ≥ 90 |  |  |
| CC(C)(C)NC(=S)N1CCN(c2cncc(O[C@H]3CC[C@H](Nc4ccc([N+](=O)[O-])c(C(F)(F)F)c4)CC3)c2)CC1 [Compound 91] | ≥ 90 |  |  |
| CNC(=S)N1CCN(c2ccnc(O[C@H]3CC[C@H](Nc4ccc([N+](=O)[O-])c(C(F)(F)F)c4)CC3)c2)CC1 [Compound 129] | ≥ 90 |  |  |
| O=C(NC1CCCC1)N1CCN(c2cccc(O[C@H]3CC[C@H](Nc4ccc([N+](=O)[O-])c(C(F)(F)F)c4)CC3)n2)CC1 [Compound 147] |  |  | ≥ 90 |
| CCNC(=O)N1CCN(c2cccc(O[C@H]3CC[C@H](Nc4ccc([N+](=O)[O-])c(C(F)(F)F)c4)CC3)n2)CC1 [Compound 131] | ≥ 90 |  |  |
| CNC(=O)N1CCN(c2cncc(O[C@H]3CC[C@H](Nc4ccc([N+](=O)[O-])c(C(F)(F)F)c4)CC3)c2)CC1 [Compound 154] |  |  | ≥ 90 |
| CCNC(=S)N1CCN(c2cncc(O[C@H]3CC[C@H](Nc4ccc([N+](=O)[O-])c(C(F)(F)F)c4)CC3)c2)CC1 [Compound 124] | ≥ 90 |  |  |
| CC(C)(C)OC(=O)N1CCN(c2ncccc2O[C@H]2CC[C@H](Nc3ccc([N+](=O)[O-])c(C(F)(F)F)c3)CC2)CC1 [Compound 121] | ≥ 90 |  |  |
| O=[N+]([O-])c1ccc(N[C@H]2CC[C@H](Oc3cccc(N4CCN(CC5CCCC5)CC4)n3)CC2)cc1C(F)(F)F [Compound 142] |  |  | ≥ 90 |
| CCCNC(=S)N1CCN(c2cccc(O[C@H]3CC[C@H](Nc4ccc([N+](=O)[O-])c(C(F)(F)F)c4)CC3)n2)CC1 [Compound 120] | ≥ 90 |  |  |

| Structure (SMILES) | inhibition at 5 ppm [%] | inhibition at 1 ppm [%] | inhibition at 10 µM [%] |
| --- | --- | --- | --- |
| CCCN1CCN(c2cccc(O[C@H]3CC[C@H](Nc4ccc([N+](=O)[O-])c(C(F)(F)F)c4)CC3)n2)CC1 [Compound 158] |  |  | ≥ 90 |
| CC(C)(C)NC(=S)N1CCN(c2cccc(O[C@H]3CC[C@H](Nc4ccc([N+](=O)[O-])c(C(F)(F)F)c4)CC3)n2)CC1 [Compound 116] | ≥ 90 |  |  |
| CC(C)(C)OC(=O)N1CCN(c2cc(O[C@H]3CC[C@H](Nc4ccc(S(=O)(=O)C(F)(F)F)cc4)CC3)ccn2)CC1 [Compound 186] |  |  | ≥ 90 |
| CNC(=O)N1CCN(c2ccnc(O[C@H]3CC[C@H](Nc4ccc([N+](=O)[O-])c(C(F)(F)F)c4)CC3)c2)CC1 [Compound 155] |  |  | ≥ 90 |
| CC(C)(C)NC(=O)N1CCN(c2cccc(O[C@H]3CC[C@H](Nc4ccc([N+](=O)[O-])c(C(F)(F)F)c4)CC3)n2)CC1 [Compound 150] |  |  | ≥ 90 |
| CCCOC(=O)N1CCN(c2cc(O[C@H]3CC[C@H](Nc4ccc(S(=O)(=O)C(F)(F)F)cc4)CC3)ccn2)CC1 [Compound 187] |  |  | ≥ 90 |
| CCCCN1CCN(c2cccc(O[C@H]3CC[C@H](Nc4ccc([N+](=O)[O-])c(C(F)(F)F)c4)CC3)n2)CC1 [Compound 157] |  |  | ≥ 90 |
| CCNC(=S)N1CCN(c2cccc(O[C@H]3CC[C@H](Nc4ccc([N+](=O)[O-])c(C(F)(F)F)c4)CC3)n2)CC1 [Compound 125] | ≥ 90 |  |  |
| O=[N+]([O-])c1ccc(N[C@H]2CC[C@H](Oc3ccnc(N4CCN(Cc5ccc(C(F)(F)F)cc5)CC4)c3)CC2)cc1C(F)(F)F [Compound 56] | ≥ 90 | ≥ 90 |  |
| O=C(Cc1cc(C(F)(F)F)cc(C(F)(F)F)c1)N1CCN(c2cc(O[C@H]3CC[C@H](Nc4ccc([N+](=O)[O-])c(C(F)(F)F)c4)CC3)ccn2)CC1 [Compound 137] |  |  | ≥ 90 |
| CCOC(=O)N1CCN(c2cccc(O[C@H]3CC[C@H](Nc4ccc([N+](=O)[O-])c(C(F)(F)F)c4)CC3)n2)CC1 [Compound 110] | ≥ 90 |  |  |
| CC(C)(C)OC(=O)N1CCN(c2cc(O[C@H]3CC[C@H](Nc4ccc(C#N)c(C(F)(F)F)c4)CC3)ccn2)CC1 [Compound 151] |  |  | ≥ 90 |
| O=C(Nc1ccc(C(F)(F)F)cc1)N1CCN(c2cccc(O[C@H]3CC[C@H](Nc4ccc([N+](=O)[O-])c(C(F)(F)F)c4)CC3)n2)CC1 [Compound 139] |  |  | ≥ 90 |
| CCN1CCN(c2cc(O[C@H]3CC[C@H](Nc4ccc([N+](=O)[O-])c(C(F)(F)F)c4)CC3)ccn2)CC1 [Compound 160] |  |  | ≥ 90 |
| O=C(Nc1ccc(C(F)(F)F)cc1)N1CCN(c2ccnc(O[C@H]3CC[C@H](Nc4ccc([N+](=O)[O-])c(C(F)(F)F)c4)CC3)c2)CC1 [Compound 138] |  |  | ≥ 90 |
| CCCNC(=S)N1CCN(c2ccnc(O[C@H]3CC[C@H](Nc4ccc([N+](=O)[O-])c(C(F)(F)F)c4)CC3)c2)CC1 [Compound 99] | ≥ 90 | ≥ 90 |  |
| O=S(=O)(c1ccc(N[C@H]2CC[C@H](Oc3cncc(N4CCN(c5ccc(C(F)(F)F)cn5)CC4)c3)CC2)cc1)C(F)(F)F [Compound 195] |  |  | ≥ 90 |
| CCCNC(=S)N1CCN(c2cncc(O[C@H]3CC[C@H](Nc4ccc([N+](=O)[O-])c(C(F)(F)F)c4)CC3)c2)CC1 [Compound 119] | ≥ 90 |  |  |
